One may read the HC50 as the concentration that lyses half of the red blood cells.

Drawing on ChEMBL document CHEMBL4831516, “Development of Membrane-Active Honokiol/Magnolol Amphiphiles as Potent Antibacterial Agents against Methicillin-Resistant Staphylococcus aureus (MRSA)” (J Med Chem, 2021), this text covers MIC, selectivity ratio and HC50 for 5 molecules.

Data set [1] concerns Salmonella enterica. As to the kind of experiment: Antibacterial activity against Salmonella enterica 349812 assessed as inhibition of visible growth incubated for 16 to 18 hrs by CLSI method. It is filed as functional. To be noted: time 16-18 hrs, read-out: MIC100.
Data set [2] has as its system Staphylococcus aureus. As to the kind of experiment: Antibacterial activity against methicillin-resistant Staphylococcus aureus clinical isolate M-20 assessed as inhibition of visible growth incubated for 16 to 18 hrs by CLSI method. The conditions noted are these: time 16-18 hrs, read-out: MIC100. Type of data set: functional.
The test system of data set [3] is Staphylococcus aureus. As to the kind of experiment: Antibacterial activity against methicillin-resistant Staphylococcus aureus clinical isolate M-18 assessed as inhibition of visible growth incubated for 16 to 18 hrs by CLSI method. Type of data set: functional. The conditions noted are these: time 16-18 hrs, read-out: MIC100.
A further data set relates to Bacillus subtilis. Description: Antibacterial activity against Bacillus subtilis assessed as inhibition of visible growth incubated for 16 to 18 hrs by CLSI method. To be noted: time 16-18 hrs, read-out: MIC100. Type of data set: functional.
In data set [4] the test system is Staphylococcus aureus. Description: Antibacterial activity against methicillin-resistant Staphylococcus aureus clinical isolate M-14 assessed as inhibition of visible growth incubated for 16 to 18 hrs by CLSI method. Type of data set: functional. To be noted: time 16-18 hrs, read-out: MIC100.
For data set [5], the system named is Staphylococcus aureus. Description: Antibacterial activity against methicillin-resistant Staphylococcus aureus clinical isolate M-19 assessed as inhibition of visible growth incubated for 16 to 18 hrs by CLSI method. Type of data set: functional. The conditions noted are these: time 16-18 hrs, read-out: MIC100.
Data set [6] relates to Salmonella enterica. As to the kind of experiment: Antibacterial activity against Salmonella enterica 8389 assessed as inhibition of visible growth incubated for 16 to 18 hrs by CLSI method. It is filed as functional. To be noted: time 16-18 hrs, read-out: MIC100.
Data set [7] can be described thus: Selectivity index, HC50 for hemolytic activity in sheep RBC to MIC for antibacterial activity against Staphylococcus aureus ATCC29213. Type of data set: toxicity. To be noted: sheep red blood cells (erythrocytes), read-out: Selectivity Index.
Data set [8] deals with Staphylococcus aureus. As to the kind of experiment: Antibacterial activity against methicillin-resistant Staphylococcus aureus clinical isolate M-15 assessed as inhibition of visible growth incubated for 16 to 18 hrs by CLSI method. It is filed as functional. The conditions noted are these: time 16-18 hrs, read-out: MIC100.
Data set [9] concerns Staphylococcus aureus. As to the kind of experiment: Antibacterial activity against methicillin-resistant Staphylococcus aureus clinical isolate M-13 assessed as inhibition of visible growth incubated for 16 to 18 hrs by CLSI method. Type of data set: functional. The conditions noted are these: time 16-18 hrs, read-out: MIC100.
The next data set has as its system Enterococcus faecalis. As to the kind of experiment: Antibacterial activity against Enterococcus faecalis ATCC29212 assessed as inhibition of visible growth incubated for 16 to 18 hrs by CLSI method. Type of data set: functional. To be noted: time 16-18 hrs, read-out: MIC100.
The subject of data set [10] is Stenotrophomonas maltophilia. Description: Antibacterial activity against Stenotrophomonas maltophilia assessed as inhibition of visible growth incubated for 16 to 18 hrs by CLSI method. The conditions noted are these: time 16-18 hrs, read-out: MIC100. Type of data set: functional.
Data set [11] concerns Staphylococcus aureus. Description: Antibacterial activity against methicillin-resistant Staphylococcus aureus clinical isolate M-11 assessed as inhibition of visible growth incubated for 16 to 18 hrs by CLSI method. It is filed as functional. The conditions noted are these: time 16-18 hrs, read-out: MIC100.
A short description of data set [12]: Hemolytic activity in sheep RBC assessed as hemolysis incubated for 1 hr. It is filed as ADME, cell-based, Ovis aries, Erythrocyte. To be noted: sheep red blood cells (erythrocytes).
Data set [13] has as its system Staphylococcus aureus. Description: Antibacterial activity against methicillin-resistant Staphylococcus aureus clinical isolate M-17 assessed as inhibition of visible growth incubated for 16 to 18 hrs by CLSI method. Type of data set: functional. To be noted: time 16-18 hrs, read-out: MIC100.
The test system of another data set is Escherichia coli. As to the kind of experiment: Antibacterial activity against Escherichia coli ATCC25922 assessed as inhibition of visible growth incubated for 16 to 18 hrs by CLSI method. To be noted: time 16-18 hrs, read-out: MIC100. Type of data set: functional.
Data set [14] concerns Staphylococcus aureus. Description: Antibacterial activity against methicillin-resistant Staphylococcus aureus clinical isolate M-12 assessed as inhibition of visible growth incubated for 16 to 18 hrs by CLSI method. It is filed as functional. To be noted: time 16-18 hrs, read-out: MIC100.
The next data set has as its system Micrococcus luteus. As to the kind of experiment: Antibacterial activity against Micrococcus luteus assessed as inhibition of visible growth incubated for 16 to 18 hrs by CLSI method. It is filed as functional. The conditions noted are these: time 16-18 hrs, read-out: MIC100.
Data set [15] concerns Staphylococcus aureus. Description: Antibacterial activity against methicillin-resistant Staphylococcus aureus clinical isolate M-16 assessed as inhibition of visible growth incubated for 16 to 18 hrs by CLSI method. Type of data set: functional. To be noted: time 16-18 hrs, read-out: MIC100.
Data set [16] deals with Staphylococcus aureus. Description: Antibacterial activity against Staphylococcus aureus ATCC29213 assessed as inhibition of visible growth incubated for 16 to 18 hrs by CLSI method. Type of data set: functional. To be noted: time 16-18 hrs, read-out: MIC100.

In the case of `C=CCc1ccc(OCC[N+](C)(C)CC(=O)NCCC)c(-c2ccc(OCC[N+](C)(C)CC(=O)NCCC)c(CC=C)c2)c1.[Br-].[Br-]`, the MIC with Salmonella enterica [1] was 64 µg/mL; in the data set on Staphylococcus aureus [2], 8 µg/mL; in the data set with Staphylococcus aureus [3] it was 8 µg/mL; in the data set on Bacillus subtilis it was 16 µg/mL; with Staphylococcus aureus [4], 8 µg/mL; in the data set with Staphylococcus aureus [5], 8 µg/mL. For the same molecule, the MIC came to 64 µg/mL in the data set with Salmonella enterica [6]; 4 µg/mL with Staphylococcus aureus [8]; 8 µg/mL in the data set on Staphylococcus aureus [9]; 8 µg/mL in the data set with Enterococcus faecalis; 64 µg/mL in data set [10]; 8 µg/mL in the data set on Staphylococcus aureus [11]. In addition, the MIC in the data set on Staphylococcus aureus [13] is 4 µg/mL; in the data set on Escherichia coli it was 64 µg/mL; with Staphylococcus aureus [14], 8 µg/mL; in the data set with Micrococcus luteus, 16 µg/mL; in the data set on Staphylococcus aureus [15], 4 µg/mL; with Staphylococcus aureus [16] it was 16 µg/mL. The selectivity ratio in data set [7] was determined as 43.9. For the same molecule, the HC50 at 1 h in [12] turned out to be 703 µg/mL.
`C=CCc1ccc(O)c(-c2cc(CC=C)ccc2OCCCC[N+](C)(C)CC(=O)NCCCCC)c1.[Br-]`: the MIC was 32 µg/mL in the data set on Salmonella enterica [1]; 4 µg/mL in the data set on Staphylococcus aureus [2]; 4 µg/mL with Staphylococcus aureus [3]; 2 µg/mL with Bacillus subtilis; 4 µg/mL in the data set on Staphylococcus aureus [4]; 4 µg/mL with Staphylococcus aureus [5]. Moreover, the MIC with Salmonella enterica [6] was determined as 32 µg/mL; with Staphylococcus aureus [8], 4 µg/mL; with Staphylococcus aureus [9], 4 µg/mL; with Enterococcus faecalis, 8 µg/mL; in data set [10], 32 µg/mL; in the data set with Staphylococcus aureus [11], 4 µg/mL. For the same molecule, the MIC in the data set with Staphylococcus aureus [13] turned out to be 4 µg/mL; in the data set on Escherichia coli, 8 µg/mL; with Staphylococcus aureus [14], 4 µg/mL; with Micrococcus luteus, 4 µg/mL; in the data set on Staphylococcus aureus [15], 4 µg/mL; with Staphylococcus aureus [16], 2 µg/mL. Also, the selectivity ratio in [7] stood at 322. Also, in [12], the HC50 at 1 h was found to be 643 µg/mL.
For the molecule `C=CCc1ccc(O)c(-c2cc(CC=C)ccc2OCCC[N+](C)(C)CC(=O)NCCCCC)c1.[Br-]`, the MIC came out at 32 µg/mL with Salmonella enterica [1]; 2 µg/mL in the data set on Staphylococcus aureus [2]; 2 µg/mL in the data set with Staphylococcus aureus [3]; 1 µg/mL in the data set on Bacillus subtilis; 2 µg/mL with Staphylococcus aureus [4]; 2 µg/mL in the data set on Staphylococcus aureus [5]. Also, the MIC in the data set on Salmonella enterica [6] turned out to be 16 µg/mL; in the data set with Staphylococcus aureus [8] it was 2 µg/mL; in the data set on Staphylococcus aureus [9] it was 4 µg/mL; with Enterococcus faecalis, 4 µg/mL; in data set [10] it was 16 µg/mL; in the data set on Staphylococcus aureus [11], 8 µg/mL. In addition, the MIC in the data set on Staphylococcus aureus [13] is 2 µg/mL; in the data set on Escherichia coli, 8 µg/mL; with Staphylococcus aureus [14], 2 µg/mL; with Micrococcus luteus, 1 µg/mL; in the data set with Staphylococcus aureus [15], 2 µg/mL; in the data set on Staphylococcus aureus [16] it was 2 µg/mL. Also, the selectivity ratio in [7] was 339. For the same molecule, in data set [12], the HC50 at 1 h came to 678 µg/mL.
`C=CCc1ccc(O)c(-c2cc(CC=C)ccc2OCCCC[N+](C)(C)CC(=O)NCCCC)c1.[Br-]`: the MIC was 16 µg/mL with Salmonella enterica [1]; 1 µg/mL in the data set with Staphylococcus aureus [2]; 1 µg/mL with Staphylococcus aureus [3]; 0.5 µg/mL in the data set on Bacillus subtilis; 2 µg/mL with Staphylococcus aureus [4]; 1 µg/mL in the data set on Staphylococcus aureus [5]. The MIC in the data set on Salmonella enterica [6] was 16 µg/mL; in the data set with Staphylococcus aureus [8], 1 µg/mL; in the data set with Staphylococcus aureus [9], 2 µg/mL; with Enterococcus faecalis it was 2 µg/mL; in data set [10], 8 µg/mL; in the data set with Staphylococcus aureus [11] it was 4 µg/mL. The MIC is 2 µg/mL in the data set on Staphylococcus aureus [13]; 8 µg/mL in the data set on Escherichia coli; 2 µg/mL in the data set with Staphylococcus aureus [14]; 0.5 µg/mL in the data set on Micrococcus luteus; 1 µg/mL in the data set on Staphylococcus aureus [15]; 2 µg/mL in the data set with Staphylococcus aureus [16]. For the same molecule, the selectivity ratio in [7] amounted to 277. In data set [12], the HC50 at 1 h came out at 555 µg/mL.
Consider `C=CCc1ccc(OCCCC[N+](C)(C)CC(=O)NCCCC)c(-c2ccc(OCCCC[N+](C)(C)CC(=O)NCCCC)c(CC=C)c2)c1.[Br-].[Br-]`, for which the MIC in the data set on Salmonella enterica [1] came to 8 µg/mL; with Staphylococcus aureus [2], 2 µg/mL; with Staphylococcus aureus [3], 4 µg/mL; in the data set with Bacillus subtilis, 2 µg/mL; with Staphylococcus aureus [4], 2 µg/mL; in the data set on Staphylococcus aureus [5], 4 µg/mL. Moreover, the MIC in the data set on Salmonella enterica [6] came to 16 µg/mL; in the data set with Staphylococcus aureus [8] it was 4 µg/mL; with Staphylococcus aureus [9], 2 µg/mL; in the data set with Enterococcus faecalis, 1 µg/mL; in data set [10], 8 µg/mL; in the data set with Staphylococcus aureus [11], 2 µg/mL. The MIC in the data set with Staphylococcus aureus [13] was determined as 4 µg/mL; with Escherichia coli it was 8 µg/mL; in the data set with Staphylococcus aureus [14], 2 µg/mL; in the data set with Micrococcus luteus, 4 µg/mL; with Staphylococcus aureus [15] it was 4 µg/mL; with Staphylococcus aureus [16], 2 µg/mL. For the same molecule, the selectivity ratio in [7] worked out at 266. Further, in data set [12], the HC50 at 1 h was 531 µg/mL.
